The target of experiment [1] is Ribosomal protein S6 kinase alpha-4 (Homo sapiens) (UniProt O75676). The experiment can be described thus: Inhibition of human full length MSK2 expressed in baculovirus assessed as substrate phosphorylation using fluorescence-labelled peptides as substrate at 0.2 uM after 90 mins by microfluidic peptide phosphorylation assay.
Experiment [2] has as its target Serine/threonine-protein kinase MARK1 (Homo sapiens) (UniProt Q9P0L2). Briefly: Inhibition of human full length MARK1 expressed in baculovirus assessed as substrate phosphorylation using fluorescence-labelled peptides as substrate at 8 uM after 90 mins by microfluidic peptide phosphorylation assay.
For experiment [3], the target named is Rho-associated protein kinase 2 (Homo sapiens) (UniProt O75116). Briefly: Inhibition of human ROCK2 catalytic domain expressed in baculovirus assessed as substrate phosphorylation using fluorescence-labelled peptides as substrate at 8 uM after 90 mins by microfluidic peptide phosphorylation assay.
The target in experiment [4] is Mitogen-activated protein kinase kinase kinase kinase 4 (Homo sapiens) (UniProt O95819). The experiment can be described thus: Inhibition of human HGK catalytic domain expressed in baculovirus assessed as substrate phosphorylation using fluorescence-labelled peptides as substrate at 8 uM after 90 mins by microfluidic peptide phosphorylation assay.
For experiment [5], the target named is Ribosomal protein S6 kinase alpha-4 (Homo sapiens) (UniProt O75676). The experiment can be described thus: Inhibition of human full length MSK2 expressed in baculovirus assessed as substrate phosphorylation using fluorescence-labelled peptides as substrate at 8 uM after 90 mins by microfluidic peptide phosphorylation assay.
The target of experiment [6] is MAP/microtubule affinity-regulating kinase 3 (Homo sapiens) (UniProt P27448). Briefly: Inhibition of human full length c-TAK1 expressed in Escherichia coli cell assessed as substrate phosphorylation using fluorescence-labelled peptides as substrate at 8 uM after 90 mins by microfluidic peptide phosphorylation assay.
Chain of MAP/microtubule affinity-regulating kinase 3 (Homo sapiens) (P27448 whole entry, looked up, the tested form may be a part): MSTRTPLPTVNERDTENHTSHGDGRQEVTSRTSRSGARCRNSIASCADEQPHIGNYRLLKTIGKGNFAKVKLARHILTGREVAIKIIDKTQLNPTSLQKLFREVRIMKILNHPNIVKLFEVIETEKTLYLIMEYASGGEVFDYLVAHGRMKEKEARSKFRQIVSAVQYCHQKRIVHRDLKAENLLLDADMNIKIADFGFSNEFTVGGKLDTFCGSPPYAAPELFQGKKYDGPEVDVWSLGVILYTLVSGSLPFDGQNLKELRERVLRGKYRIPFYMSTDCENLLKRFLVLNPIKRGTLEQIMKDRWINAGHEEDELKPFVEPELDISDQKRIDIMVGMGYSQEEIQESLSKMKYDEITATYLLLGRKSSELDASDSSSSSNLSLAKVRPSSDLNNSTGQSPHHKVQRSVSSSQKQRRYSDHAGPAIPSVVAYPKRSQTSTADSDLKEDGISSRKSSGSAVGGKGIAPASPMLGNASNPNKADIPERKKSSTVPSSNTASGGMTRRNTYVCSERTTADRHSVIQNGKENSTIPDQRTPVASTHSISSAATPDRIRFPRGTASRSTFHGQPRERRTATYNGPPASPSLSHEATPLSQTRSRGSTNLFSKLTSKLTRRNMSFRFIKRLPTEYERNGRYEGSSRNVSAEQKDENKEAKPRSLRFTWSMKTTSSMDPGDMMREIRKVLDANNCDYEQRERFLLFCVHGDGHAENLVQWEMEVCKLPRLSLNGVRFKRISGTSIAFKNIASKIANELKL
The target in experiment [7] is Glycogen synthase kinase-3 beta (Homo sapiens) (UniProt P49841). Briefly: Inhibition of human full length GSK-3 beta expressed in baculovirus assessed as substrate phosphorylation using fluorescence-labelled peptides as substrate at […] after 90 mins by microfluidic peptide phosphorylation assay.
Chain of Glycogen synthase kinase-3 beta (Homo sapiens) (P49841 whole entry, looked up, the tested form may be a part): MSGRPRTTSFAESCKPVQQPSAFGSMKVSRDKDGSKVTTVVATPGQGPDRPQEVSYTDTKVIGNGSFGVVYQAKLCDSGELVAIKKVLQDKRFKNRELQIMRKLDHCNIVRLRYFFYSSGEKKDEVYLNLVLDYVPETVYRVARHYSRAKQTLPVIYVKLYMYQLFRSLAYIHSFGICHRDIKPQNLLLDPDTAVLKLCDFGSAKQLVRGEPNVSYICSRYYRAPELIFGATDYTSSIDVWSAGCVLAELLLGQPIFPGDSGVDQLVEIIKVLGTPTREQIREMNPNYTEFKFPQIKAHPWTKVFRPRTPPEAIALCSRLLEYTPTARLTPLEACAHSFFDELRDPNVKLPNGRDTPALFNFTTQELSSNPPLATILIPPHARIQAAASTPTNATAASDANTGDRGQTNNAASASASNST
For experiment [8], the target named is Insulin receptor (Homo sapiens) (UniProt P06213). Briefly: Inhibition of human INSR catalytic domain expressed in baculovirus assessed as substrate phosphorylation using fluorescence-labelled peptides as substrate at […] after 90 mins by microfluidic peptide phosphorylation assay.
Experiment [9] addresses MAP/microtubule affinity-regulating kinase 3 (Homo sapiens) (UniProt P27448). Briefly: Inhibition of human full length c-TAK1 expressed in Escherichia coli cell assessed as substrate phosphorylation using fluorescence-labelled peptides as substrate at […] after 90 mins by microfluidic peptide phosphorylation assay.
For experiment [10], the system named is Tyrosine-protein kinase ABL1 (Homo sapiens), P00519 [T315I]. Briefly: Inhibition of human truncated ABL T315I mutant expressed in baculovirus assessed as substrate phosphorylation using fluorescence-labelled peptides as substrate at 1000 uM after 90 mins by microfluidic peptide phosphorylation assay.
For experiment [11], the target named is T1, Aurora kinase C (Homo sapiens) (UniProt Q9UQB9).
T1 sequence (whole entry): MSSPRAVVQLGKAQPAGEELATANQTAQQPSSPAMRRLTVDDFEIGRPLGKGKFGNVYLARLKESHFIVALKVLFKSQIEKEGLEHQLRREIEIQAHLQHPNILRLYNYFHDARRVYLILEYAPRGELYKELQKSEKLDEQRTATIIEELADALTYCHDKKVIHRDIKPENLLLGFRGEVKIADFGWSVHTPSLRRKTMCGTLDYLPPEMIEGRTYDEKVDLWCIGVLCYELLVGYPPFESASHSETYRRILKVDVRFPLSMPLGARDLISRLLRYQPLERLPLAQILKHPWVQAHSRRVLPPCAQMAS
Briefly: Inhibition of human full length AurC expressed in baculovirus assessed as substrate phosphorylation using fluorescence-labelled peptides as substrate at 1000 uM after 90 mins by microfluidic peptide phosphorylation assay.

In experiment [12] the target is T2, Inhibitor of nuclear factor kappa-B kinase subunit beta (Homo sapiens) (UniProt O14920).
T2 sequence (whole entry): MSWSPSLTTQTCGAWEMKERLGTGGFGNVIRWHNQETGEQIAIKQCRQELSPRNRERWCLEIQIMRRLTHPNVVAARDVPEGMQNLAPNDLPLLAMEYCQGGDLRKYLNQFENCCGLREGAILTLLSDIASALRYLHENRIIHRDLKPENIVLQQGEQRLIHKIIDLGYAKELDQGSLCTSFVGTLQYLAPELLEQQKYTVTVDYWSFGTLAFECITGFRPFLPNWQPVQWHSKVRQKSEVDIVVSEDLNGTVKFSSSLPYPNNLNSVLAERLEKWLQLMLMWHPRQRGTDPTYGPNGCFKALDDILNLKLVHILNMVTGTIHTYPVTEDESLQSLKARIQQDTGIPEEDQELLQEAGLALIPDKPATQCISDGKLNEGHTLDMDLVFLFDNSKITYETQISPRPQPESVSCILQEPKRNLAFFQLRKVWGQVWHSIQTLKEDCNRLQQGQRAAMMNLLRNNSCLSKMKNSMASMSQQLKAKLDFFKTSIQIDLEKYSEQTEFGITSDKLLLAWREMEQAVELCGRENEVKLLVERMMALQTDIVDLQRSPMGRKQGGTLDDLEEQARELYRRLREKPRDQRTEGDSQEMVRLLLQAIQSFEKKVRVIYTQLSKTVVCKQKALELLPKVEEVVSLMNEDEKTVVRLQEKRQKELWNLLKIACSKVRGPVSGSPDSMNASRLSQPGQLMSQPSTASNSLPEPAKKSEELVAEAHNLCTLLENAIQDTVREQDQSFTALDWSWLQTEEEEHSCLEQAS
The experiment can be described thus: Inhibition of human full length IKK beta expressed in baculovirus assessed as substrate phosphorylation using fluorescence-labelled peptides as substrate at 1000 uM after 90 mins by microfluidic peptide phosphorylation assay.

Experiment [13] concerns the target Protein kinase C eta type (Homo sapiens) (UniProt P24723). Briefly: Inhibition of human truncated PKC eta expressed in baculovirus assessed as substrate phosphorylation using fluorescence-labelled peptides as substrate at 1000 uM after 90 mins by microfluidic peptide phosphorylation assay.
Experiment [14] concerns the target Proto-oncogene tyrosine-protein kinase Src (Homo sapiens) (UniProt P12931). The experiment can be described thus: Inhibition of human full length SRC expressed in baculovirus assessed as substrate phosphorylation using fluorescence-labelled peptides as substrate at 0.06 uM after 90 mins by microfluidic peptide phosphorylation assay.
The target in experiment [15] is Calcium/calmodulin-dependent protein kinase type II subunit beta (Homo sapiens) (UniProt Q13554). Briefly: Inhibition of human CAMK2 beta catalytic domain expressed in baculovirus assessed as substrate phosphorylation using fluorescence-labelled peptides as substrate at 0.06 uM after 90 mins by microfluidic peptide phosphorylation assay.
In experiment [16] the target is Mitogen-activated protein kinase 1 (Homo sapiens) (UniProt P28482). Briefly: Inhibition of human full length ERK2 expressed in Escherichia coli cell assessed as substrate phosphorylation using fluorescence-labelled peptides as substrate at 2 uM after 90 mins by microfluidic peptide phosphorylation assay.
Chain of Mitogen-activated protein kinase 1 (Homo sapiens) (P28482 whole entry): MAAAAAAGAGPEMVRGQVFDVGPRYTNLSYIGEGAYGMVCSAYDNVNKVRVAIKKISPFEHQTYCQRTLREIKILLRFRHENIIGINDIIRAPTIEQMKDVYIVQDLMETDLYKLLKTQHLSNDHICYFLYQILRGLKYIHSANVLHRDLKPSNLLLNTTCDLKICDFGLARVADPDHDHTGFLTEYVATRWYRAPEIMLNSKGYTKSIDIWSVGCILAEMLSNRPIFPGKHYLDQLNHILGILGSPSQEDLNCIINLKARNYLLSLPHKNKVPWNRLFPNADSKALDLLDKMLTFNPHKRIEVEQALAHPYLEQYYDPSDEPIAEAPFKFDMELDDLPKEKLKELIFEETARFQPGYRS
The target in experiment [17] is Tyrosine-protein kinase Lck (Homo sapiens) (UniProt P06239). The experiment can be described thus: Inhibition of human full length LCK expressed in baculovirus assessed as substrate phosphorylation using fluorescence-labelled peptides as substrate at 70 uM after 90 mins by microfluidic peptide phosphorylation assay.
Chain of Tyrosine-protein kinase Lck (Homo sapiens) (P06239 2-509 limits assumed): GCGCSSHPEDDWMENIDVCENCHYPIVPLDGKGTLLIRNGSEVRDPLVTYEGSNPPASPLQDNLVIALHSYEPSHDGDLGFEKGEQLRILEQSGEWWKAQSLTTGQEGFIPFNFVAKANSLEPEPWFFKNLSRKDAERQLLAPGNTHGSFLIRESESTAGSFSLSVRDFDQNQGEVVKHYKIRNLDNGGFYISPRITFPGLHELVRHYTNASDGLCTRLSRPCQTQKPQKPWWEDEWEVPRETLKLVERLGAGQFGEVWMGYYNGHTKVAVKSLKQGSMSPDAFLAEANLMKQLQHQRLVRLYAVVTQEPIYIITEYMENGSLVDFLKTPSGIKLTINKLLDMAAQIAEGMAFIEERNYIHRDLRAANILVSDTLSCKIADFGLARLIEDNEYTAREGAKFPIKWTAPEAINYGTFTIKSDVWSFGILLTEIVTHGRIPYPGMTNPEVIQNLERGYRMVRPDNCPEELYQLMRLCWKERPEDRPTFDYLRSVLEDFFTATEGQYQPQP

Chain of Ribosomal protein S6 kinase alpha-4 (Homo sapiens) (O75676 whole entry, looked up): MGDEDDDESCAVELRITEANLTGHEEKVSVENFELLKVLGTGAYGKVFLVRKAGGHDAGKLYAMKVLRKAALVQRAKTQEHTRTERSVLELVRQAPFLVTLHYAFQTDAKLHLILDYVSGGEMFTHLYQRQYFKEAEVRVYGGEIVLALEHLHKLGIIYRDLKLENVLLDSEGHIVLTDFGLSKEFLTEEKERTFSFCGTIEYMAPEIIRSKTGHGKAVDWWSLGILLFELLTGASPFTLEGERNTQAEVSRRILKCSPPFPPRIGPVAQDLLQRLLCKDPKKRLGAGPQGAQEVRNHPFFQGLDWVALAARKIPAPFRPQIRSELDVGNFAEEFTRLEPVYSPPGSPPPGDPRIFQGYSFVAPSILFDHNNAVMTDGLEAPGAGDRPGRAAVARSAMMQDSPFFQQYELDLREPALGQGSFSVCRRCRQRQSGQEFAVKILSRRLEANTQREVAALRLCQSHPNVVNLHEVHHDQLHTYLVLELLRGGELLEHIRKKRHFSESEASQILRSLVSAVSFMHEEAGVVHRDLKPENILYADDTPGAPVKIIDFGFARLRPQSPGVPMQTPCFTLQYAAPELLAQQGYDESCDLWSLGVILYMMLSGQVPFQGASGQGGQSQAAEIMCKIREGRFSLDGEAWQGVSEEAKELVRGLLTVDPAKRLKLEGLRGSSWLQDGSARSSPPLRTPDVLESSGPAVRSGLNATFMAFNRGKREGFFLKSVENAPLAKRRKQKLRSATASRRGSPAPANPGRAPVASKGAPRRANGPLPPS
Chain of Proto-oncogene tyrosine-protein kinase Src (Homo sapiens) (P12931 2-536 limits assumed): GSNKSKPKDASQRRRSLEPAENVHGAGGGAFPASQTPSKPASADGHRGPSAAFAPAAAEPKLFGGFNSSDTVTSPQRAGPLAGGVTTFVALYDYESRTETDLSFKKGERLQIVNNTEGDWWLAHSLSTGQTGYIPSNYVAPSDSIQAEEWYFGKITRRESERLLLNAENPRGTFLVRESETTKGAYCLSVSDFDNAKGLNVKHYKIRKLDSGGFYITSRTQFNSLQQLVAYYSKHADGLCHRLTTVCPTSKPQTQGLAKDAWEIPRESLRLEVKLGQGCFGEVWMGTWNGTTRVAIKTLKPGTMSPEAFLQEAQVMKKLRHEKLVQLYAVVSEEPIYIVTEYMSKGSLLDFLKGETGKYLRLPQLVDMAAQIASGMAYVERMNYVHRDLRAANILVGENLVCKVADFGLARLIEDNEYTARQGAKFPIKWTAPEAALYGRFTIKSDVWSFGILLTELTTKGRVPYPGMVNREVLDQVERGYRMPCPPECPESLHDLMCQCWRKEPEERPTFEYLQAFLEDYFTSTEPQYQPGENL
Chain of Protein kinase C eta type (Homo sapiens) (P24723 whole entry, the tested form may be a part): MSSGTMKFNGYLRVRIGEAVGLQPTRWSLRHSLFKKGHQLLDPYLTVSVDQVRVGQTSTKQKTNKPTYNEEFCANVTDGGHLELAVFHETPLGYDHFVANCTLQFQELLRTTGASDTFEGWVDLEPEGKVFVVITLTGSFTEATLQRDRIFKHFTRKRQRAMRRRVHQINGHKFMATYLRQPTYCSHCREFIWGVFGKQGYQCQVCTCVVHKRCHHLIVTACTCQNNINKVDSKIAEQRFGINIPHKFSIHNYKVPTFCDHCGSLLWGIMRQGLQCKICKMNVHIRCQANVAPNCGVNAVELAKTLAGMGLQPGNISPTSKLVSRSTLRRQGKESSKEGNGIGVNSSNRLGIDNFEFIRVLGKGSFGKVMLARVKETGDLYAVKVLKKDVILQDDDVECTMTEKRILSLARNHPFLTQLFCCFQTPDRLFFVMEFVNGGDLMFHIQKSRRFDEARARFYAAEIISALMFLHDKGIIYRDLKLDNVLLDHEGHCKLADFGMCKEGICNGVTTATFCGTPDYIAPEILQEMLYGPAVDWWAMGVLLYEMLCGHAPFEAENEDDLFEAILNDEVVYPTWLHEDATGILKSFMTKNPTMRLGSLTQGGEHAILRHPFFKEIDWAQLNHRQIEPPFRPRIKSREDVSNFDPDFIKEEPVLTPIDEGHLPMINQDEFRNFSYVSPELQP
Chain of Serine/threonine-protein kinase MARK1 (Homo sapiens) (Q9P0L2 whole entry, looked up, the tested form may be a part): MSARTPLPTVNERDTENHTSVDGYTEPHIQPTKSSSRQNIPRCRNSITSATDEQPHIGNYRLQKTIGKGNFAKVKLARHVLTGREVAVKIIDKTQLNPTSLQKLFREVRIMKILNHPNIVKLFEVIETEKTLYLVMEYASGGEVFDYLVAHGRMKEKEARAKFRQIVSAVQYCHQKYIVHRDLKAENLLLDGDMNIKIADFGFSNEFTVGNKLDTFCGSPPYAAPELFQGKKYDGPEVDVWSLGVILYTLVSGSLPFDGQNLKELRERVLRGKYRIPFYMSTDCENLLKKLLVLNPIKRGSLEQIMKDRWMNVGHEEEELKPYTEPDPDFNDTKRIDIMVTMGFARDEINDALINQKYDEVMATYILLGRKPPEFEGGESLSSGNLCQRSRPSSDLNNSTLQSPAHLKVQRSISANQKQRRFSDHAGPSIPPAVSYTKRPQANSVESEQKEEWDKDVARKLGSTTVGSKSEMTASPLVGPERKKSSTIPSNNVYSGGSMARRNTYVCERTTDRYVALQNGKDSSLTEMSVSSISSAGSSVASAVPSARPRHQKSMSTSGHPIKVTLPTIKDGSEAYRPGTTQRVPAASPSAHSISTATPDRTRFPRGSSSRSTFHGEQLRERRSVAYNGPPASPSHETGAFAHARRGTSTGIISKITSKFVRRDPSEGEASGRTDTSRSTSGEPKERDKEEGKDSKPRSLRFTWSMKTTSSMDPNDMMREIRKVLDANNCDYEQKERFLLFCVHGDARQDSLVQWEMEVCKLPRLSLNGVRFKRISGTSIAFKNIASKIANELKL

Regarding `Clc1ccc(C2(c3ccc(-c4ncnc5[nH]cnc45)cc3)CCNCC2)cc1`, in experiment [1], the inhibition (commonly the percentage by which the read-out fell short of the control) worked out at 82.5%.

Consider `NCC1CCN(c2ncnc3[nH]ccc23)CC1`, for which the inhibition in experiment [2] came to 74%; in [3] it was 89.5%; in experiment [4], 11.5%; in experiment [5], 50%; in experiment [6] it was 3%.

In the case of `COC(=O)c1cnc(Nc2cnc(C#N)cn2)cc1NCC1CCNCC1`, the figures for the inhibition in [7], in experiment [8] and in experiment [9] were 3.5%, 7% and 0.5%, respectively.

Consider `c1cnc2[nH]ccc2c1`, for which the inhibition in experiment [10] was 58%; in experiment [11] it was 96%; in experiment [12], 95.5%; in [13], 52%.

Turning to `NC1(Cc2ccc(Cl)cc2)CCN(c2ncnc3[nH]ccc23)CC1`, the inhibition in [14] and in experiment [15] was 0% in each case.

For `NC1CCN(c2ncnc3[nH]ccc23)CC1`, the inhibition in [16] was determined as 2.5%.

As for `CNCc1ccc(-c2ncnc3[nH]cnc23)cc1`, the inhibition in experiment [17] came out at 38%.
